Legend:
Experiment in all cases: Hot-Spot kinase profiling
Assay type in all cases: biochemical
JNK1 = target: T1, JNK1 (Homo sapiens, UniProt P45983); details: read-out: % Enzyme Activity (Relative to DMSO Controls) JNK1
T1 construct: purchased Reaction Biology Corp. (Malvern PA, USA)
Experimental: (§1) Activities of kinases were determined using Hot-SpotSM kinase assay which was performed by Reaction Biology Corp. (Malvern PA, USA) as described previously.

FLT3 (R595_E596insEY) = target: T2, FLT3 (R595_E596insEY) (Homo sapiens, UniProt P36888, INS595EY)
T2 construct: purchased Reaction Biology Corp
Experimental: as §1

KDR/VEGFR2 = target: T3, KDR/VEGFR2 (Homo sapiens, UniProt P35968)
T3 construct: purchased Reaction Biology Corp. (Malvern PA, USA)
T3 sequence (P35968 20-1356): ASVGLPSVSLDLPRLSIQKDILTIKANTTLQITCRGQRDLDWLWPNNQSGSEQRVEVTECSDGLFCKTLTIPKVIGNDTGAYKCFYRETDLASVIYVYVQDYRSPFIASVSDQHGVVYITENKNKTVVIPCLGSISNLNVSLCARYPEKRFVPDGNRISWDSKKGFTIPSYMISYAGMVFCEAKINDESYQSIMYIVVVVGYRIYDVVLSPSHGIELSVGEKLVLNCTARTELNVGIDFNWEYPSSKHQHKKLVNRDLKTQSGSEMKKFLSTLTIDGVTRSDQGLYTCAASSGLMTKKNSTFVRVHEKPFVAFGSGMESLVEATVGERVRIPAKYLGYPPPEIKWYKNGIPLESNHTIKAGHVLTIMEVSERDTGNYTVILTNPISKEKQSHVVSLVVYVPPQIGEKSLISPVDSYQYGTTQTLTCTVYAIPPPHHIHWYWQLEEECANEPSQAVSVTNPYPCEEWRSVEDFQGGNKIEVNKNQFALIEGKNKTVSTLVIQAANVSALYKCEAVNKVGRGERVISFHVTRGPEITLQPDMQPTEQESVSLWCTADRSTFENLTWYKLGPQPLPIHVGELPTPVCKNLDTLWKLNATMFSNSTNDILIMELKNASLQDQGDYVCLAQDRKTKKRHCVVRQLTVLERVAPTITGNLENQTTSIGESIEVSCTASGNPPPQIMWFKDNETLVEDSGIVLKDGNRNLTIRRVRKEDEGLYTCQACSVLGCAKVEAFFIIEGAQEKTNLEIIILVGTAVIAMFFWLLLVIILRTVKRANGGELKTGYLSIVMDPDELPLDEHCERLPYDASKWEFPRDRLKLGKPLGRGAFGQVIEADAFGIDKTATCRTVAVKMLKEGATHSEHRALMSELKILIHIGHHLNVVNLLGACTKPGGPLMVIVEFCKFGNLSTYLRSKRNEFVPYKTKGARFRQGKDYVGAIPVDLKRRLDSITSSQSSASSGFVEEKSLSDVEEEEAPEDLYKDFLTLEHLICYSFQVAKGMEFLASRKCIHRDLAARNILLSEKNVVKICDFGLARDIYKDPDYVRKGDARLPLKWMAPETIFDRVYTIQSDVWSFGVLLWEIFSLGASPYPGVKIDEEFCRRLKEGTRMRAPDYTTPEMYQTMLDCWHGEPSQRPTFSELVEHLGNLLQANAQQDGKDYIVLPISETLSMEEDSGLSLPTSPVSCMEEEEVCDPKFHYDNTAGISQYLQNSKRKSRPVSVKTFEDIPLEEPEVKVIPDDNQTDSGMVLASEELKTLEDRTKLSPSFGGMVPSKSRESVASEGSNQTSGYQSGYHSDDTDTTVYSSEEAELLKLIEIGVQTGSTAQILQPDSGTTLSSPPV
Experimental: as §1

ALK = target: T4, ALK (Homo sapiens, UniProt Q9UM73); details: read-out: % Enzyme Activity (Relative to DMSO Controls) ALK
T4 construct: purchased Reaction Biology Corp. (HotSpot kinase assay)
Experimental: as §1

Aurora B = target: T5, Aurora B (Homo sapiens, UniProt Q96GD4); details: read-out: % Enzyme Activity (Relative to DMSO Controls) Aurora B
T5 construct: purchased Reaction Biology Corp. (HotSpot kinase assay)
T5 sequence (Q96GD4 whole entry): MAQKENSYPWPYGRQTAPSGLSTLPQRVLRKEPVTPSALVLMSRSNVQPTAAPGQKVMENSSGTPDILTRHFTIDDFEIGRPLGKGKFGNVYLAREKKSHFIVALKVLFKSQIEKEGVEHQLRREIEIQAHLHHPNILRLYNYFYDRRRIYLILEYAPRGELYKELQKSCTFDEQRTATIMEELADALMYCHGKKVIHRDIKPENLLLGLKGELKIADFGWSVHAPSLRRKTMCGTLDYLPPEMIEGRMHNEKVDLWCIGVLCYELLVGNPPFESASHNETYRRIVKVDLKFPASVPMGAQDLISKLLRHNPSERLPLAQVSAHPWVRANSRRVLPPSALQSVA
Experimental: as §1

FLT3 = target: T6, FLT3 (Homo sapiens, UniProt P36888)
T6 construct: purchased Reaction Biology Corp
T6 sequence (P36888 27-993): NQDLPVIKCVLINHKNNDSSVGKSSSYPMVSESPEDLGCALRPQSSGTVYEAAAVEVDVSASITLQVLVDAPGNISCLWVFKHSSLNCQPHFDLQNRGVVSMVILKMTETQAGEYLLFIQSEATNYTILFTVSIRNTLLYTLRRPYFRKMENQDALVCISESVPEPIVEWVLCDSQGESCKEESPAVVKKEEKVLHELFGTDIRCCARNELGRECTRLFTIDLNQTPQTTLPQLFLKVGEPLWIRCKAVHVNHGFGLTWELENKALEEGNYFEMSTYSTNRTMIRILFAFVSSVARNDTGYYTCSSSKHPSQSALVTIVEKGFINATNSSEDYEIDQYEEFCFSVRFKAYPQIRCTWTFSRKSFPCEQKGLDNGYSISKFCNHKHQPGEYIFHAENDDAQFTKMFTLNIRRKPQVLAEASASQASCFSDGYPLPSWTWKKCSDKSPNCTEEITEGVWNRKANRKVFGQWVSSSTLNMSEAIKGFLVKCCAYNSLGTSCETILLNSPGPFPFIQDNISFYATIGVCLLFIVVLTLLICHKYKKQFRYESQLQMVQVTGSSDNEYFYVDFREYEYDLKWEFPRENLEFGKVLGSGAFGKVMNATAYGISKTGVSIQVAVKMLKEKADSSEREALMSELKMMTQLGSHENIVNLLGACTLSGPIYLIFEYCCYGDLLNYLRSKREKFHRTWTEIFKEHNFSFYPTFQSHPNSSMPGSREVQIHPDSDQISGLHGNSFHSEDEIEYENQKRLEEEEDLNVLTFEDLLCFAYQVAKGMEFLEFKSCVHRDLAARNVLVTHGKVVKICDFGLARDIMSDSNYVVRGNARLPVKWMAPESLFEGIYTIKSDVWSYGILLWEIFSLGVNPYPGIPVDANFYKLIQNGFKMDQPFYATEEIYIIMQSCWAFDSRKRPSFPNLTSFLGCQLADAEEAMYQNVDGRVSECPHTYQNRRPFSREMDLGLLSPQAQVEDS
Experimental: as §1

FLT3 (D835Y) = target: T7, FLT3 (D835Y) (Homo sapiens, UniProt P36888, D835Y)
T7 construct: purchased Reaction Biology Corp
Experimental: as §1

FMS = target: T8, FMS (Homo sapiens, UniProt P07333); details: read-out: % Enzyme Activity (Relative to DMSO Controls) FMS
T8 construct: purchased Reaction Biology Corp
Experimental: as §1

CDK4/cyclin D1 = target: T9, CDK4/cyclin D1 (Homo sapiens, UniProt P11802)
T9 construct: purchased Reaction Biology Corp
T9 sequence (P11802 whole entry): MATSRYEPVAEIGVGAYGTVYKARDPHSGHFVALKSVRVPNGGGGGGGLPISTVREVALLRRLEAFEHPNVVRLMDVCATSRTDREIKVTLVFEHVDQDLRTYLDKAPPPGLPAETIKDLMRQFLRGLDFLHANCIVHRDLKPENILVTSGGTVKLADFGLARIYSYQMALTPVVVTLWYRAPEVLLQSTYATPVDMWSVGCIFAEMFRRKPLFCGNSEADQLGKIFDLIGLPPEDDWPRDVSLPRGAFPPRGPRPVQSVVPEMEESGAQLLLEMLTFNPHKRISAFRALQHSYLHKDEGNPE
T9 sequence (P24385 whole entry partner): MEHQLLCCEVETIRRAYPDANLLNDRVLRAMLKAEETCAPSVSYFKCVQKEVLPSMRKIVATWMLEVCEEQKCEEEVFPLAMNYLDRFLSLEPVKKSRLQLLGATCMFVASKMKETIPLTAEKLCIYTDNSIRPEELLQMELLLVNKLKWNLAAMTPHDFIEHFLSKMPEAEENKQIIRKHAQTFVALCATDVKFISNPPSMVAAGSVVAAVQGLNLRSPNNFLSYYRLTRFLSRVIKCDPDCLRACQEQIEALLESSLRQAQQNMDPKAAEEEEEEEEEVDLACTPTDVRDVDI
Experimental: as §1

[1] = target: T10, FLT3 (Y591-V592insVDFREYEYD) (Homo sapiens, UniProt P36888, INS591VDFREYEYD)
T10 construct: purchased Reaction Biology Corp
Experimental: as §1

FLT1/VEGFR1 = target: T11, FLT1/VEGFR1 (Homo sapiens, UniProt P17948)
T11 construct: purchased Reaction Biology Corp
T11 sequence (P17948 27-1338): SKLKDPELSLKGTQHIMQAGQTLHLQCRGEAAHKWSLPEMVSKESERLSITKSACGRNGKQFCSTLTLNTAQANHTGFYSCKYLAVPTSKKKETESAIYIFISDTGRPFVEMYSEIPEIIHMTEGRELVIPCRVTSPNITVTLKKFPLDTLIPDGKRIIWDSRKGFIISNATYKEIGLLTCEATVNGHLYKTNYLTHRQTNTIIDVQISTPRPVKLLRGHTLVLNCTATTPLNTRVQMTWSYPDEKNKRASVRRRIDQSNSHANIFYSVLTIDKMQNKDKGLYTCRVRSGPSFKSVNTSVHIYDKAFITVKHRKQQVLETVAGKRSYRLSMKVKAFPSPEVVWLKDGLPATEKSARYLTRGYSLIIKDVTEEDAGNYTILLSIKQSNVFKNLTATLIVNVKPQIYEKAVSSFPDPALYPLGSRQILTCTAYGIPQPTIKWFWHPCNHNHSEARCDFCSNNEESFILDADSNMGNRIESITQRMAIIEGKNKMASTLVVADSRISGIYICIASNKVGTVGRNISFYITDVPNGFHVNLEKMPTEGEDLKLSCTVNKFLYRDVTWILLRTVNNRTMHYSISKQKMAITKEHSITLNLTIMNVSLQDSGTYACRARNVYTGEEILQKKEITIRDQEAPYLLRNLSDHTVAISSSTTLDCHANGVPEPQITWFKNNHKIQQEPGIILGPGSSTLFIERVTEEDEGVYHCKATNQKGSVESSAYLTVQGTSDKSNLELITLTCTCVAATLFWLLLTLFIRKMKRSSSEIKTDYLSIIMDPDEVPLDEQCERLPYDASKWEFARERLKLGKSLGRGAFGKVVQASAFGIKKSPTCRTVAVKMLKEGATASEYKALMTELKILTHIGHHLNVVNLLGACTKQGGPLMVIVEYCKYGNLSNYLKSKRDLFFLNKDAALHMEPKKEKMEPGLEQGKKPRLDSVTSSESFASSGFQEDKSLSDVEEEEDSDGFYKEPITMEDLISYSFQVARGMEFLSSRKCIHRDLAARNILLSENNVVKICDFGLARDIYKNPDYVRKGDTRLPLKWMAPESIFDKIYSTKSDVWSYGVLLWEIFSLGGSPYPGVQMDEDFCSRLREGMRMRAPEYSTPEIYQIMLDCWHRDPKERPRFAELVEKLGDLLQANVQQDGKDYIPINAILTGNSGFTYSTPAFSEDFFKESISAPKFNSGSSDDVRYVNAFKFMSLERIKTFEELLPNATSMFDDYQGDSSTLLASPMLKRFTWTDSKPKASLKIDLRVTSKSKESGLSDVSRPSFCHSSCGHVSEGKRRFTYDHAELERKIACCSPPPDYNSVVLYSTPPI
Experimental: as §1

ALK1/ACVR1 = details: 0.15 μM
Experimental: as §1

CDK3/cyclin E = target: T12, CDK3/cyclin E (Homo sapiens, UniProt Q00526)
T12 construct: purchased Reaction Biology Corp
T12 sequence (Q00526 whole entry): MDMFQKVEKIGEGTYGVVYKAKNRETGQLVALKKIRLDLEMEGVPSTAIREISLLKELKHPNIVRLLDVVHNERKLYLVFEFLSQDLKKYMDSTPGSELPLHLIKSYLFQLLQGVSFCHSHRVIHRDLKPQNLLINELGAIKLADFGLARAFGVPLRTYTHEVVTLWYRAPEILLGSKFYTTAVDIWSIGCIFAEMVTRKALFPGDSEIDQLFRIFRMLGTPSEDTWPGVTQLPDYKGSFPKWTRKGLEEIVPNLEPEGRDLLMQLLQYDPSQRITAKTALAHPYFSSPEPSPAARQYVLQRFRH
T12 sequence (P24864 whole entry partner): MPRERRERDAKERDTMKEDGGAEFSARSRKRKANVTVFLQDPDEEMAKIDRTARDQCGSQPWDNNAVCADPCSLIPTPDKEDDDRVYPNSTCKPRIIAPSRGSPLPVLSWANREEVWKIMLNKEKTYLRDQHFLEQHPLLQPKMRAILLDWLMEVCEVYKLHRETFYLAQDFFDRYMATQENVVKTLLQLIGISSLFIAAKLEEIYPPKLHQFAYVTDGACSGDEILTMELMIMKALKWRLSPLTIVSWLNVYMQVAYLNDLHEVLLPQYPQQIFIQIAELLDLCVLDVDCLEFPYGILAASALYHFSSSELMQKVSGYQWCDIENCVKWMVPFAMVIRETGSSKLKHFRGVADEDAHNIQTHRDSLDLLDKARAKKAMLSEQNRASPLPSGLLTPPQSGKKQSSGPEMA
Experimental: as §1

FLT3 (F594_R595insREY) = target: T13, FLT3 (F594_R595insREY) (Homo sapiens, UniProt P36888, INS594REY)
T13 construct: purchased Reaction Biology Corp
Experimental: as §1

ABL1 = target: T14, ABL1 (Homo sapiens, UniProt P00519); details: read-out: % Enzyme Activity (Relative to DMSO Controls) ABL1
T14 construct: purchased Reaction Biology Corp. (HotSpot kinase assay)
Experimental: as §1

GSK3β = target: T15, GSK3β (Homo sapiens, UniProt P49841)
T15 construct: purchased Reaction Biology Corp
T15 sequence (P49841 whole entry): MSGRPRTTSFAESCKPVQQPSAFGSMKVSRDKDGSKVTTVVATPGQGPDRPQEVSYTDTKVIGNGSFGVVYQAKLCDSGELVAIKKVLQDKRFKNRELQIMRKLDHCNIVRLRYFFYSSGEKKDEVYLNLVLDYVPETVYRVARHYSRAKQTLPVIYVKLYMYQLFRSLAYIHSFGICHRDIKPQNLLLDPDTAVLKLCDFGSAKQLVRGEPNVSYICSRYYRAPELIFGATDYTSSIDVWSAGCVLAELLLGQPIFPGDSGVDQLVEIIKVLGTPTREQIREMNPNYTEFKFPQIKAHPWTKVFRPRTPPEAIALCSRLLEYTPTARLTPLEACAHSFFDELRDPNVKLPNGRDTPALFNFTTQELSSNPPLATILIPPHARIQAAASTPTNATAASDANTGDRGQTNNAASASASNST
Experimental: as §1

FLT3 (ITD)-W51 = target: T16, FLT3 (ITD)-W51 (Homo sapiens, UniProt P36888, DUP595-601)
T16 construct: purchased Reaction Biology Corp
Experimental: as §1

remaining activity at 0.15 µM (JNK1): 39.2%
remaining activity at 0.15 µM (FLT3 (R595_E596insEY); 0.15 μM, read-out: % Enzyme Activity (Relative to DMSO Controls) FLT3 (R595_E596insEY)): 0.44%
IC50 (FLT3 (R595_E596insEY); Table 5 kinase profiling): 1.59 ± 0.14 nM
remaining activity at 0.15 µM (KDR/VEGFR2; 0.15 μM, read-out: % Enzyme Activity (Relative to DMSO Controls) KDR/VEGFR2): 7.29%
IC50 (KDR/VEGFR2; Table 5 kinase profiling): 8.32 ± 0.54 nM
remaining activity at 0.15 µM (ALK): 16.6%
remaining activity at 0.15 µM (Aurora B): 55.3%
remaining activity at 0.15 µM (FLT3; 0.15 μM, read-out: % Enzyme Activity (Relative to DMSO Controls) FLT3): 0.01%
IC50 (FLT3; Table 5 kinase profiling): 0.035 ± 0.01 nM
remaining activity at 0.15 µM (FLT3 (D835Y); 0.15 μM, read-out: % Enzyme Activity (Relative to DMSO Controls) FLT3 (D835Y)): 0.27%
IC50 (FLT3 (D835Y); Table 5 kinase profiling): 0.75 ± 0.04 nM
remaining activity at 0.15 µM (FMS): 63%
remaining activity at 0.15 µM (CDK4/cyclin D1; 0.15 μM, read-out: % Enzyme Activity (Relative to DMSO Controls) CDK4/cyclin D1): 1.56%
IC50 (CDK4/cyclin D1; Table 5 kinase profiling): 0.78 ± 0.04 nM
IC50 ([1]; Table 5 kinase profiling, read-out: IC50 FLT3 (Y591-V592ins[…])): 0.66 ± 0.08 nM
remaining activity at 0.15 µM ([1]; read-out: % Enzyme Activity (Relative to DMSO Controls) FLT3 (Y591-V592insVDFREYEYD), 0.15 μM, read-out: % Enzyme Activity (Relative to DMSO Controls) FLT3 (Y591-V592ins[…])): 0.54%
remaining activity at 0.15 µM (FLT1/VEGFR1; 0.15 μM, read-out: % Enzyme Activity (Relative to DMSO Controls) FLT1/VEGFR1): 6.08%
IC50 (FLT1/VEGFR1; Table 5 kinase profiling): 12.4 ± 0.19 nM
% Enzyme Activity (Relative to DMSO Controls) ALK1/ACVR1 (ALK1/ACVR1): 57.96%
remaining activity at 0.15 µM (CDK3/cyclin E; 0.15 μM, read-out: % Enzyme Activity (Relative to DMSO Controls) CDK3/cyclin E): 5.94%
IC50 (CDK3/cyclin E; Table 5 kinase profiling): 6.88 ± 0.25 nM
remaining activity at 0.15 µM (FLT3 (F594_R595insREY); 0.15 μM, read-out: % Enzyme Activity (Relative to DMSO Controls) FLT3 (F594_R595insREY)): 0.8%
IC50 (FLT3 (F594_R595insREY); Table 5 kinase profiling): 1.38 ± 0.11 nM
remaining activity at 0.15 µM (ABL1): 81%
remaining activity at 0.15 µM (GSK3β; 0.15 μM, read-out: % Enzyme Activity (Relative to DMSO Controls) GSK3b): 8.65%
IC50 (GSK3β; Table 5 kinase profiling): 12 ± 1.2 nM
remaining activity at 0.15 µM (FLT3 (ITD)-W51; 0.15 μM, read-out: % Enzyme Activity (Relative to DMSO Controls) FLT3 (ITD)-W51): 0.51%
IC50 (FLT3 (ITD)-W51; Table 5 kinase profiling): 0.94 ± 0.09 nM
Structure (SMILES): O=C(Nc1ccc(N2CCNCC2)cc1)c1n[nH]cc1Nc1ncnc2sc3c(c12)CCC3 [Compound 8t]
